Active and inactive are the calls of the source.
Key:
Kallikrein-7 = Kallikrein-7 (Homo sapiens, UniProt P49862); experiment: Fluorescence Intensity-based biochemical primary high throughput dose response assay to identify activators of kallikrein-7 (K7) zymogen.
[1] = viability of PTEN-deleted HCT116 cells – cell-based, HCT116 PTEN knockout, dose response (AID 1047); type: functional;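 note: HCT116 colon tumor cells with PTEN knocked out; cells exposed to compound for 60 hours before readout; potency for loss of cell viability measured by luminescence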
[2] = viability of HCT116 lacking mutant beta-catenin – cell-based, human colon tumor, dose response (AID 1045); type: functional;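 note: HCT116 colon tumor cells with beta catenin knocked out; cells exposed to compound for 60 hours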
Ephrin type-A receptor 4 = Ephrin type-A receptor 4 (Mus musculus, UniProt Q03137); experiment: EphA4 ligand-binding antagonists – biochemical, colorimetric, mouse EphA4, primary screen (AID 689); type: functional
[3] = biological target: T1, RNA-binding protein pos-1 (Caenorhabditis elegans, UniProt G5EF15); experiment: disruptors of C. elegans POS-1 RNA interaction – biochemical, fluorescence polarization, dose response (AID 1964);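 note: purified POS-1 fused to maltose binding protein made in E. coli; potency of compounds blocking POS-1 binding to fluorescent RNA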
T1 sequence (G5EF15 whole entry): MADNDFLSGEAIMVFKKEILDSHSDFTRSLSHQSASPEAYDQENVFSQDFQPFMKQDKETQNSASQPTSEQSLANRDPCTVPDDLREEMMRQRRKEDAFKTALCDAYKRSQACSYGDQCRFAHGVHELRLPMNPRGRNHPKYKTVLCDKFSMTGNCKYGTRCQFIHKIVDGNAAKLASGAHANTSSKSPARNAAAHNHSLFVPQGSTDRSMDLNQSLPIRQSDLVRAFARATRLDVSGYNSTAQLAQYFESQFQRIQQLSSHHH

[4] = biological target: T2, Zinc finger protein mex-5 (Caenorhabditis elegans, UniProt Q9XUB2); experiment: potency of MEX-5 RNA-binding blockers – biochemical, C. elegans, fluorescence polarization, dose response (AID 1960)
T2 sequence (Q9XUB2 whole entry): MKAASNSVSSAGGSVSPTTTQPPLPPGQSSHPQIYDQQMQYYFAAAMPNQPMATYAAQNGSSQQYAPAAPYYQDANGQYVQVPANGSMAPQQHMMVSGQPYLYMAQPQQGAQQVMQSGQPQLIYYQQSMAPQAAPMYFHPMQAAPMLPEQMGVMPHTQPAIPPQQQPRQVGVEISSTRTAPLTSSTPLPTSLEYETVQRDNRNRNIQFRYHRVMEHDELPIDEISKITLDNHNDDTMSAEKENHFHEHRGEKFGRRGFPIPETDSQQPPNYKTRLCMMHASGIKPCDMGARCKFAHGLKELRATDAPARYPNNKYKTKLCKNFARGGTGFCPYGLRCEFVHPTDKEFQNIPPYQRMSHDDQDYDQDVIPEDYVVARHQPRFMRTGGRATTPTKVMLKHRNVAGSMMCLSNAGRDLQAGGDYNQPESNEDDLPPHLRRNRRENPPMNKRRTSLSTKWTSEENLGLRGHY

Caspase-6 = Caspase-6 (Homo sapiens, UniProt P55212); experiment: inhibition of CASP6 peptide cleavage – biochemical, VEID-R110 fluorescence, cherry-pick, dose response (AID 720632)
[5] = M. tuberculosis growth inhibition, HTS (AID 449762); type: functional
[6] = microbe, parasite or virus in culture; type: functional; settings: Mycobacterium tuberculosis
Cytochrome P450 3A4 = Cytochrome P450 3A4 (Homo sapiens, UniProt P08684); settings: Potency;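 note: confirmatory qHTS run detecting inhibitors and substrates of CYP3A4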
[7] = Trypanosoma cruzi growth suppression in host cells – NIH3T3 host cells, beta-gal luminescence, confirmation (AID 2044); type: functional, cell-based;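 note: intracellular parasites grown in NIH/3T3 mouse fibroblasts as host cells; luminescent beta-galactosidase reporter signal from transgenic T. cruzi replicating inside host cells; inhibitors lower the luminescence signal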
[8] = NIH3T3 cell viability loss – ATP luminescence, mouse fibroblasts, counter-screen, dose response (AID 2010); type: functional, cell-based;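 note: cells exposed to compound for about 90 hours before reading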
Vero [9] = experiment: mammalian cell viability reduction – secondary assay, cytotoxicity control for West Nile virus antiviral project, dose response (AID 1650); type: functional; settings: Chlorocebus sabaeus
Nonstructural protein 1 = Nonstructural protein 1 (Influenza A virus, UniProt Q194T2); type: functional, Influenza A virus (A/California/07/2009(H1N1))
Vero [10] = experiment: cells; type: functional; settings: Chlorocebus sabaeus
[11] = biological target: T3, Polyadenylate-binding protein 1 (Homo sapiens, UniProt P11940); experiment: MLLE binding blockers, Cy5 peptide tracer – biochemical, fluorescence polarization, Cy5-PAM2 peptide, secondary, miRNA deadenylation inhibitor project, dose response (AID 602260); type: functional; settings: read-out: IC50_Mean
[12] = biological target: T3, Polyadenylate-binding protein 1; experiment: MLLE domain peptide-binding blockers, IC50 – biochemical, fluorescence polarization, FITC-PAM2 peptide, dose response (AID 602259); type: functional; settings: read-out: IC50_Mean
Prothrombin = Prothrombin (Homo sapiens, UniProt P00734); experiment: Thrombin 1536 HTS Dose Response Confirmation. [Related pubchem assays: 1046 (Thrombin 1536 HTS; hits were confirmed in this assay)]; type: functional

T3 sequence (P11940 whole entry, the tested form may be a part): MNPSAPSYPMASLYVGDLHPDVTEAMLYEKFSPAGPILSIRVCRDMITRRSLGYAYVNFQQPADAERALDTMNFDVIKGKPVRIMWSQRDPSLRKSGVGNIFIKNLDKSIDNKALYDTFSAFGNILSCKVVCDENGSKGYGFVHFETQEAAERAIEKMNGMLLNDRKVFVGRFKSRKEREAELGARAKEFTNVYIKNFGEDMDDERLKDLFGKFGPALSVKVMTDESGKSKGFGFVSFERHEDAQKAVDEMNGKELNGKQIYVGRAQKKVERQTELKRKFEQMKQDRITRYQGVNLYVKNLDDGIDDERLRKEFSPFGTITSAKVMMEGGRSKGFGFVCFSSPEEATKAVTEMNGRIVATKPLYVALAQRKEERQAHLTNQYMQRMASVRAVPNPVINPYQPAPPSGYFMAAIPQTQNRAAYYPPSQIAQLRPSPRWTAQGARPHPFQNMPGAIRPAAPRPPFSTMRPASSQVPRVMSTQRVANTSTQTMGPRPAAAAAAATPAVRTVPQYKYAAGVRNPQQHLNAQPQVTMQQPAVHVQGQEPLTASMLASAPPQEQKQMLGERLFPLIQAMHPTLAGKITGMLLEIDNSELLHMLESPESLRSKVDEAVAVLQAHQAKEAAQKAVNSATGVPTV
Ephrin type-A receptor 4, sequence (Q03137 whole entry, the tested form may be a part): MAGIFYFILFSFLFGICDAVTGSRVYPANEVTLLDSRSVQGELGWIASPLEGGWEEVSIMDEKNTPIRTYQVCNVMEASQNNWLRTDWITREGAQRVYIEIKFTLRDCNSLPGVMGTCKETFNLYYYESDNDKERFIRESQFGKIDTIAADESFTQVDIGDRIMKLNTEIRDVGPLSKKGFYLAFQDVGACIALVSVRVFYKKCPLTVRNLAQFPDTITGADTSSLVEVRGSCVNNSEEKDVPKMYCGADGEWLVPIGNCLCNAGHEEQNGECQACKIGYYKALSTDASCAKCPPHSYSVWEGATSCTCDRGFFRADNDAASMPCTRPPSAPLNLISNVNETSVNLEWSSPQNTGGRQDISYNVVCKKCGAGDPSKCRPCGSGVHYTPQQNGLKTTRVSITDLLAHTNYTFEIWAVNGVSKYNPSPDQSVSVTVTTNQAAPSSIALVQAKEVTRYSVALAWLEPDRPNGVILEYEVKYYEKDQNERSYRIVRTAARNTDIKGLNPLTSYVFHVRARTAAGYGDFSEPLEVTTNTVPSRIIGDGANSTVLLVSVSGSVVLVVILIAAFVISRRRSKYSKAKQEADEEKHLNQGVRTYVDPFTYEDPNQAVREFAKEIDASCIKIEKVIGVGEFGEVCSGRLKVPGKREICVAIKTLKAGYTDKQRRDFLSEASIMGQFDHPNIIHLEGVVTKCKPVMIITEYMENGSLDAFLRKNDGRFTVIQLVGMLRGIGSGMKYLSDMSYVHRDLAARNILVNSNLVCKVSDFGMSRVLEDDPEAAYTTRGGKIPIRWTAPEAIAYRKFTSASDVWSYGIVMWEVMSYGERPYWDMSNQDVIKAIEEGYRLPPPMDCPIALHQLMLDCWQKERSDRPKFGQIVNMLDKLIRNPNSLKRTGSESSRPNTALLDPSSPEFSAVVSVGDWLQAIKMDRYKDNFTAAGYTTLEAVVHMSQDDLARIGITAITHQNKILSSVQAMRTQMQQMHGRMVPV
Caspase-6, sequence (P55212 24-179 limits assumed): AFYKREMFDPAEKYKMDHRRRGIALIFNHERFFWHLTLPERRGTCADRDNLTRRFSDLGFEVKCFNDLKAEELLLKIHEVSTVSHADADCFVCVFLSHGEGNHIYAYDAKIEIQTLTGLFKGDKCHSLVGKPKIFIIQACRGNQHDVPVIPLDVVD
Caspase-6, sequence (P55212 194-293 limits assumed): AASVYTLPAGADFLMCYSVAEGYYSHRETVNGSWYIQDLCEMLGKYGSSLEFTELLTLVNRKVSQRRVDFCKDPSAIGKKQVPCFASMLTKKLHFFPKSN
Kallikrein-7, sequence (P49862 whole entry): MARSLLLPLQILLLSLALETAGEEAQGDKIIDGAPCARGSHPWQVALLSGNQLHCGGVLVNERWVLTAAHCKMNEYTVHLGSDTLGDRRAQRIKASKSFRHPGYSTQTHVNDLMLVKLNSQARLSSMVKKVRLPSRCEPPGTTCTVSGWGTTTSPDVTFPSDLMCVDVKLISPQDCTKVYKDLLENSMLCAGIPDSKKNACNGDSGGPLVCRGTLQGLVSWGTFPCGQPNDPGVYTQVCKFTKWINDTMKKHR
Nonstructural protein 1, sequence (Q194T2 whole entry): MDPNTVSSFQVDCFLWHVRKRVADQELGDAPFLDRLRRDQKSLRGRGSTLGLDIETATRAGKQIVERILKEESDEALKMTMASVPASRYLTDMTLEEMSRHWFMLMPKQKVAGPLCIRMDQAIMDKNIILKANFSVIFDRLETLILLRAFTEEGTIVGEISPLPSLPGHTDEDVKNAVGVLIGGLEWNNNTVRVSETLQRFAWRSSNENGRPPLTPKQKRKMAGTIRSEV
Cytochrome P450 3A4, sequence (P08684 whole entry): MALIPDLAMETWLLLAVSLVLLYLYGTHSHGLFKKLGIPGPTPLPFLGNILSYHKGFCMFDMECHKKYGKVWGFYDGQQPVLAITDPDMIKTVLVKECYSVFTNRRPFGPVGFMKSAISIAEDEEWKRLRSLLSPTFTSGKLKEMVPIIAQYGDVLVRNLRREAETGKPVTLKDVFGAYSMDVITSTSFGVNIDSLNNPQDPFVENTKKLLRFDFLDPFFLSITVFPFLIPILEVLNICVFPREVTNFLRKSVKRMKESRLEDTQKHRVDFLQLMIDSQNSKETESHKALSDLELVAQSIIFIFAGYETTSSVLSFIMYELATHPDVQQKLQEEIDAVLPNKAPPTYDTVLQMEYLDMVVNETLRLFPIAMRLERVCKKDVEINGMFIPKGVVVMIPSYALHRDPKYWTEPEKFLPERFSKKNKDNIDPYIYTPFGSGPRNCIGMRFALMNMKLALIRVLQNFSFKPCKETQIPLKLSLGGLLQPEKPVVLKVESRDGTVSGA

For `COCCNC(=O)/C(C#N)=C/c1c(N2CCN(c3ccc(OC)cc3)CC2)nc2c(C)cccn2c1=O`, the EC50 (Kallikrein-7) was > 69.5 µM (inactive).
For `O=C(Nc1cccc2c1CCCC2)c1cc([N+](=O)[O-])ccc1Cl`, the EC50 [1] was 7.64 µM (active), the EC50 [2] was 6.84 µM (active) and the IC50 (Ephrin type-A receptor 4) was > 100 µM (not active).
In the case of `CCOc1cc(N2CCOCC2)c(OCC)cc1NC(C)C(=O)N1CCN(CC)CC1` (stereo not drawn), the EC50 [3] is reported as 82.7 µM (active), the EC50 [4] is reported as > 300 µM (inconclusive) and the AC50 (Caspase-6) is reported as 46.7 µM (active).
For `COC(=O)c1cccc(C#CC(NP(=O)(c2ccccc2)c2ccccc2)c2ccccc2)c1` (stereo not drawn), the IC50 [5] was > 100 µM (active), the CC50 [6] was > 40 µM (active) and the AC50 (Cytochrome P450 3A4) was 12.6 µM (inconclusive).
For `CCCOc1ccc(-c2nn(-c3ccccc3)cc2/C=C2\SC(=S)N(C3CCS(=O)(=O)C3)C2=O)cc1` (stereo not drawn), the IC50 (Ephrin type-A receptor 4) was 12 µM (active).
With `O=C(c1cc([N+](=O)[O-])cc([N+](=O)[O-])c1)N1CCCc2ccccc21` the EC50 [7] was < 0.1 µM (active), the EC50 [8] was > 60 µM (not active) and the EC50 (cells) was 0.203 µM (active).
With `CCC(C)C(=O)N1c2ccccc2C(=C2SC(C(=O)OC)=C(C(=O)OC)S2)C(=S)C1(C)C` (stereo not drawn) the CC50 (Vero [9]) was > 100 µM (active), the IC50 (Nonstructural protein 1) was 17.7 µM (active) and the CC50 (Vero [10]) was 21.6 µM (active). For the same compound, the IC50 [11] was > 66 µM (inactive) and the IC50 [12] was > 66 µM (inactive).
With `CN(CC1CCCN(CCc2cccc(C(F)(F)F)c2)C1)C(=O)c1ccco1` (stereo not drawn) the EC50 [7] was < 0.1 µM (active), the EC50 [8] was > 60 µM (not active) and the EC50 (cells) was 0.587 µM (active).
For `CSc1nc(-c2ccccc2)nn1C(=O)c1ccc(C)cc1`, the IC50 (Prothrombin) was 0.028 µM (active).

— ChEMBL document CHEMBL1201862, “PubChem BioAssay data set” (2004)
